Measurements published in the NIST ThermoML archive (doi:10.1016/j.jct.2012.11.032).

Assay: xn = mol fraction of the nth substance listed
Settings: 101 kPa, Liquid; for speed of sound: Sing-around technique in a fixed-path interferometer; for mass density: Vibrating tube method

CCCCCCCCCCCC[n+]1ccn(C)c1.[Cl-] [1-dodecyl-3-methylimidazolium chloride] + O
Settings	mass density [kg/m3]	speed of sound [m/s]
298 K, x1 = 2.7e-05	997.065	–
298 K, x1 = 3e-05	997.081	–
298 K, x1 = 4.8e-05	997.081	–
298 K, x1 = 7.4e-05	997.07	–
298 K, x1 = 9.4e-05	997.061	–
298 K, x1 = 0.000109	997.064	–
298 K, x1 = 0.000129	997.078	–
298 K, x1 = 0.000145	997.058	–
298 K, x1 = 0.000163	997.076	–
298 K, x1 = 0.000181	997.056	–
298 K, x1 = 0.000208	997.055	–
298 K, x1 = 0.000234	997.049	–
298 K, x1 = 0.000248	997.059	–
298 K, x1 = 0.000273	997.045	–
298 K, x1 = 0.000286	997.042	–
298 K, x1 = 0.000302	997.023	–
298 K, x1 = 0.000319	997.039	–
298 K, x1 = 0.000341	997.023	–
298 K, x1 = 0.000384	997.011	–
298 K, x1 = 0.000407	996.995	–
298 K, x1 = 0.000428	996.98	–
298 K, x1 = 0.0428	–	1500.7
303 K, x1 = 2.7e-05	995.678	–
303 K, x1 = 3e-05	995.688	–
303 K, x1 = 4.8e-05	995.688	–
303 K, x1 = 7.4e-05	995.68	–
303 K, x1 = 9.4e-05	995.666	–
303 K, x1 = 0.000109	995.667	–
303 K, x1 = 0.000129	995.679	–
303 K, x1 = 0.000145	995.66	–
303 K, x1 = 0.000163	995.674	–
303 K, x1 = 0.000181	995.656	–
303 K, x1 = 0.000208	995.653	–
303 K, x1 = 0.000234	995.647	–
303 K, x1 = 0.000248	995.65	–
303 K, x1 = 0.000273	995.635	–
303 K, x1 = 0.000286	995.632	–
303 K, x1 = 0.000302	995.606	–
303 K, x1 = 0.000319	995.625	–
303 K, x1 = 0.000341	995.608	–
303 K, x1 = 0.000384	995.594	–
303 K, x1 = 0.000407	995.571	–
303 K, x1 = 0.000428	995.568	–
303 K, x1 = 0.0027	–	1509.5
303 K, x1 = 0.003	–	1509.5
303 K, x1 = 0.0048	–	1509.8
303 K, x1 = 0.0074	–	1510.1
303 K, x1 = 0.0094	–	1510.4
303 K, x1 = 0.0109	–	1510.6
303 K, x1 = 0.0129	–	1510.8
303 K, x1 = 0.0145	–	1511
303 K, x1 = 0.0163	–	1511.2
303 K, x1 = 0.0181	–	1511.4
303 K, x1 = 0.0208	–	1511.8
303 K, x1 = 0.0234	–	1512
303 K, x1 = 0.0248	–	1512.1
303 K, x1 = 0.0273	–	1512.3
303 K, x1 = 0.0286	–	1512.3
303 K, x1 = 0.0302	–	1512.4
303 K, x1 = 0.0319	–	1512.5
303 K, x1 = 0.0341	–	1512.6
303 K, x1 = 0.0384	–	1512.5
303 K, x1 = 0.0407	–	1512.7
303 K, x1 = 0.0428	–	1512.7
308 K, x1 = 2.7e-05	994.072	–
308 K, x1 = 3e-05	994.075	–
308 K, x1 = 4.8e-05	994.073	–
308 K, x1 = 7.4e-05	994.068	–
308 K, x1 = 9.4e-05	994.05	–
308 K, x1 = 0.000109	994.047	–
308 K, x1 = 0.000129	994.059	–
308 K, x1 = 0.000145	994.046	–
308 K, x1 = 0.000163	994.052	–
308 K, x1 = 0.000181	994.039	–
308 K, x1 = 0.000208	994.032	–
308 K, x1 = 0.000234	994.027	–
308 K, x1 = 0.000248	994.022	–
308 K, x1 = 0.000273	994.008	–
308 K, x1 = 0.000286	994.004	–
308 K, x1 = 0.000302	993.979	–
308 K, x1 = 0.000319	993.993	–
308 K, x1 = 0.000341	993.986	–
308 K, x1 = 0.000384	993.958	–
308 K, x1 = 0.000407	993.935	–
308 K, x1 = 0.000428	993.939	–
308 K, x1 = 0.0027	–	1520.1
308 K, x1 = 0.003	–	1520.2
308 K, x1 = 0.0048	–	1520.4
308 K, x1 = 0.0074	–	1520.7
308 K, x1 = 0.0094	–	1521
308 K, x1 = 0.0109	–	1521.1
308 K, x1 = 0.0129	–	1521.3
308 K, x1 = 0.0145	–	1521.5
308 K, x1 = 0.0163	–	1521.7
308 K, x1 = 0.0181	–	1521.9
308 K, x1 = 0.0208	–	1522.2
308 K, x1 = 0.0234	–	1522.4
308 K, x1 = 0.0248	–	1522.5
308 K, x1 = 0.0273	–	1522.7
308 K, x1 = 0.0286	–	1522.8
308 K, x1 = 0.0302	–	1522.8
308 K, x1 = 0.0319	–	1522.9
308 K, x1 = 0.0341	–	1523
308 K, x1 = 0.0384	–	1522.8
308 K, x1 = 0.0407	–	1523
308 K, x1 = 0.0428	–	1523
313 K, x1 = 2.7e-05	992.261	–
313 K, x1 = 3e-05	992.046	–
313 K, x1 = 7.4e-05	992.253	–
313 K, x1 = 9.4e-05	992.137	–
313 K, x1 = 0.000109	992.207	–
313 K, x1 = 0.000129	992.221	–
313 K, x1 = 0.000145	992.226	–
313 K, x1 = 0.000163	992.224	–
313 K, x1 = 0.000181	992.217	–
313 K, x1 = 0.000208	992.206	–
313 K, x1 = 0.000234	992.203	–
313 K, x1 = 0.000248	992.194	–
313 K, x1 = 0.000273	992.178	–
313 K, x1 = 0.000286	992.177	–
313 K, x1 = 0.000302	992.159	–
313 K, x1 = 0.000319	992.158	–
313 K, x1 = 0.000341	992.147	–
313 K, x1 = 0.000384	992.121	–
313 K, x1 = 0.000407	992.068	–
313 K, x1 = 0.000428	992.103	–
313 K, x1 = 0.0027	–	1529.2
313 K, x1 = 0.003	–	1529.2
313 K, x1 = 0.0074	–	1529.7
313 K, x1 = 0.0094	–	1530
313 K, x1 = 0.0109	–	1530.1
313 K, x1 = 0.0129	–	1530.3
313 K, x1 = 0.0145	–	1530.4
313 K, x1 = 0.0163	–	1530.6
313 K, x1 = 0.0181	–	1530.8
313 K, x1 = 0.0208	–	1531.1
313 K, x1 = 0.0234	–	1531.3
313 K, x1 = 0.0248	–	1531.4
313 K, x1 = 0.0273	–	1531.5
313 K, x1 = 0.0286	–	1531.6
313 K, x1 = 0.0302	–	1531.6
313 K, x1 = 0.0319	–	1531.7
313 K, x1 = 0.0341	–	1531.8
313 K, x1 = 0.0384	–	1531.6
313 K, x1 = 0.0407	–	1531.8
313 K, x1 = 0.0428	–	1531.8
